In patent publication US5552384A, “Antiherpes compositions and method of use” (priority 1990, dated 1996) one finds IC50 and side effects data, which are given here for 2 compounds.

SMILES strings stand for the structures. Where two headings read alike, the source gives them in different places. Square brackets hold non-standard residues; d marks the D form. Peptide text beside a SMILES is read from it. * marks the point of attachment. Asp(3,3-(CH2)4) = N[C@H](C(=O)O)C1(C(=O)O)CCCC1; Leu(γ-Me)ol = CC(C)(C)C[C@@H](CO)N*; Hydrocinnamoyl = O=C(CCc1ccccc1)*; Tle = CC(C)(C)[C@H](N)C(=O)O; NMeV = CN[C@H](C(=O)O)C(C)C; Pyrrolidide = C1CCN(*)C1

One data set concerns HSV-2. Briefly: microbe, parasite or virus in culture. It is filed as cell-based, HSV-2 (strain HG-52). The method, then:
BHK-21/C13 cells (ATCC CCL 10) are incubated for two days in 150 cm^2 T-flasks (1.5×10^6 cells/flask) with alpha-MEM medium (Gibco Canada Inc., Burlington, Ontario, Canada) supplemented with 8% (v/v) fetal bovine serum (FBS, Gibco Canada Inc.). The cells are trypsinized and then transferred to fresh media in a 24 well plate to give 2.5×10^5 cells in 750 μL of media per well. The cells are incubated at 37° C. for a period of 6 hours to allow them to adhere to the plate. Thereafter, the cells are washed once with 500 μL of alpha-MEM supplemented with 0.5% (v/v) FBS and then incubated with 750 μL of the same media (low serum) for 3 days. After this period of serum starvation, the low serum medium is removed and the cells are incubated in 500 μL of BBMT for 2 to 3 hours. [BBMT medium is described by P. Brazeau et al., Proc. Natl. Acad. Sci. USA, 79, 7909 (1982).] Thereafter, the cells are infected with HSV-2 (multiplicity of infection=0.02 PFU/cell) in 100 μL of BBMT medium. (Note: The HSV-2 used was strain HG-52, see Y. Langelier and G. Buttin, J. Gen. Virol., 57, 21 (1981); the virus was stored at -80° C.) Following 1 hour of virus adsorption at 37° C., the media is removed and the cells are washed with BBMT (3×250 μL). The cells in each well are incubated with or without (control) appropriate concentrations of the test agent dissolved in 200 μL of BBMT medium. After 29 hours of incubation at 37° C., the infected cells are harvested by first freezing the plate at -80° C., followed by thawing. The cells in each well are scraped off the surface of the well with the help of the melting ice fragments. After complete thawing, the cell suspensions are collected and each well is rinsed with 150 μL of BBMT medium. The viral sample (suspension plus washing) is sonicated gently for 4 minutes at 4° C. Cell debris are removed by centrifugation (1000 times gravity for 10 minutes at 4° C.). The supernatant is collected and stored at -80° C. until determination of viral titer.
Viral titration was performed by a modification of the colorimetric assay method of M. Langlois et al., Journal of Biological Standardization, 14, 201 (1986).
More specifically, in a similar manner as described above, BHK-21/C13 cells are trypsinized and transferred to fresh media in a 96 well microtiter plate to give 20,000 cells in 100 μL of media per well. The cells in the prepared plate are incubated at 37° C. for 2 hours. During that time, the viral sample is thawed and sonicated gently for 15 seconds, and log dilutions of the sample are prepared (1/5 sequential: 50 μL of the sample plus 200 μL of BBMT medium, sequential dilutions being done with a multichannel pipette.
On completion of the above 2 hour incubation of the BHK-21/C13 cells, the media is replaced with alpha-MEM medium supplemented with 3% (v/v) FBS. The cells are now ready to be infected with the various sample dilutions of virus. Aliquots (50 μL) of the various dilutions are transferred into the appropriate wells of the plate. The resulting infected cells are incubated for 2 days at 37° C. Then 50 μL of a 0.15% (v/v) solution of neutral red dye in Hank's Balanced Salt Solution (pH 7.3, Gibco Canada Inc.) is added to each well. The prepared plate is incubated for 45 minutes at 37° C. Medium from each well is then aspirated and the cells are washed once with 200 μL of Hank's Balanced Salt Solution. After the wash, the dye is released from the cells by the addition of 100 μL of a 1:1 mixture of 0.1M Sorensen's citrate buffer (pH 4.2) and ethanol. [Sorensen's citrate buffer is prepared as follows: Firstly, a 0.1M disodium citrate solution is prepared by dissolving citric acid monohydrate (21 g) in 1N aqueous NaOH (200 mL) and adding sufficient filtered H2 O to make 1 L. Secondly, the 0.1M disodium citrate solution (61.2 mL) is mixed with 0.1N aqueous HCl (38.8 mL) and the pH of the resulting solution is adjusted to 4.2 if necessary.] […]

The conditions of data set [1]: in vivo; cited from earlier work.

As to `Nc1nc2c(ncn2COCCO)c(=O)[nH]1` [acyclovir, 9-[(2-hydroxyethoxy)methyl]guanine], the IC50 in the data set on HSV-2 (Human alphaherpesvirus 2, BHK21 (C13), 29 h, agent alone, HSV-2 in BHK-21/C13 cells, 29 hours incubation, read-out: IC50, concentration causing 50% inhibition of virus replication) came to 1.8 µM; in the data set with HSV-2 (Human alphaherpesvirus 2, BHK21 (C13), +20 μM of peptide, HSV-2 in BHK-21/C13 cells, read-out: IC50 of acyclovir), 0.7 µM; in the data set with HSV-2 (Human alphaherpesvirus 2, BHK21 (C13), +30 μM of peptide, HSV-2 in BHK-21/C13 cells, read-out: IC50 of acyclovir), 0.5 µM; in the data set on HSV-2 (Human alphaherpesvirus 2, BHK21 (C13), +40 μM of peptide, HSV-2 in BHK-21/C13 cells, read-out: IC50 of acyclovir), 0.11 µM; with HSV-2 (Human alphaherpesvirus 2, BHK21 (C13), +50 μM of peptide, HSV-2 in BHK-21/C13 cells, read-out: IC50 of acyclovir), 0.09 µM. Moreover, in data set [1], the side effects result is “skin rashes and renal impairment”.

On to `CC(C)[C@@H](C(=O)N[C@H](C(=O)N[C@@H](CC(=O)N1CCCC1)C(=O)N[C@H](C(=O)N[C@H](CO)CC(C)(C)C)C1(C(=O)O)CCCC1)C(C)(C)C)N(C)C(=O)CCc1ccccc1` [peptide, PhCH2 CH2 CO--N-Me-Val-Tbg-Asp(pyrrolidino)-Asp(cyPn)-{(S)-NHCH[CH2 C(CH3)3 ]CH2 OH}] (Hydrocinnamoyl-[NMeV][Tle]D(Pyrrolidide)[Asp(3,3-(CH2)4)]-{Leu(γ-Me)ol}), for which the IC50 in the data set with HSV-2 (29 h) stood at 80 µM.
